Experimental data as given in patent US10597388B2, “Pyridazinone herbicides” (FMC CORPORATION, priority 2014, dated 2020).

Key:
Type in all cases: in vivo
[1] = test system: velvetleaf (Abutilon theophrasti); experiment: Test C greenhouse herbicide test, pre- and postemergence
Procedure, shortened: (§1)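 Two application timings: at sowing into a soil/sand blend, and on 2–18 cm seedlings in peat-vermiculite potting mix. A non-phytotoxic, surfactant-containing solvent carried the compounds. Plants were compared with controls and rated visually on 0–100 after 13–15 d.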

corn (Zea mays) = experiment: as above
Procedure, shortened: as §1

[2] = test system: wheat (winter wheat, Triticum aestivum); experiment: as above
Procedure, shortened: as §1

[3] = test system: ryegrass, Italian (Italian ryegrass, Lolium multiflorum); experiment: as above
Procedure, shortened: as §1

[4] = test system: crabgrass, large (large crabgrass, Digitaria sanguinalis); experiment: as above
Procedure, shortened: as §1

[5] = test system: johnsongrass (Sorghum halepense); experiment: as above
Procedure, shortened: as §1

[6] = test system: blackgrass (Alopecurus myosuroides); experiment: as above
Procedure, shortened: as §1

[7] = test system: foxtail, giant (giant foxtail, Setaria faberii); experiment: as above
Procedure, shortened: as §1

[8] = test system: nutsedge, yellow (yellow nutsedge, Cyperus esculentus); experiment: as above
Procedure, shortened: as §1

soybean (Glycine max) = experiment: as above
Procedure, shortened: as §1

[9] = test system: galium (catchweed bedstraw, Galium aparine); experiment: as above
Procedure, shortened: as §1

[10] = test system: barnyardgrass (Echinochloa crus-galli); experiment: as above
Procedure, shortened: as §1

[11] = test system: waterhemp_RES2 (ALS & HPPD resistant common waterhemp, Amaranthus rudis); experiment: Test E greenhouse herbicide test, postemergence
Procedure, shortened: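 Formulated compounds are applied postemergence to potted waterhemp at 1–4 leaves (2–18 cm high). Plants stay in the greenhouse for 14 to 21 d before visual comparison with controls, and control is scored from 0 (none) to 100 (complete).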

[12] = Postemergence, 31 g ai/ha, 0 to 100 scale (0 no effect, 100 complete control)
[13] = Postemergence, 125 g ai/ha, scale 0 to 100, 0 is no effect, 100 is complete control
[14] = Postemergence, 250 g ai/ha, scale 0 to 100, 0 no effect, 100 complete control, 13 to 15 d
[15] = Preemergence, 31 g ai/ha, scale 0 to 100, 0 is no effect, 100 is complete control
[16] = Preemergence, 62 g ai/ha, scale 0 to 100, 0 is no effect, 100 is complete control
[17] = Preemergence, 125 g ai/ha, scale 0 to 100, 0 is no effect, 100 is complete control
[18] = Preemergence, 250 g ai/ha, scale 0 to 100, 0 no effect, 100 complete control
[19] = postemergence, 62 g ai/ha, scale 0 to 100, 0 no effect, 100 complete control

## Cc1nn(C)c(=O)c(-c2ccc(Br)c3ccccc23)c1O [Compound 75]
[1]; [12]
  Velvetleaf plant response rating: 70
[1]; [13]
  Plant response rating, Velvetleaf: 85
[1]; [14]
  Plant response rating, Velvetleaf: 85
[1]; [15]
  Plant response rating, Velvetleaf: 35
[1]; [16]
  Plant response rating, Velvetleaf: 85
[1]; [17]
  Plant response rating, Velvetleaf: 90
[1]; [18]
  Velvetleaf plant response rating: 98
[1]; [19]
  Velvetleaf plant response rating: 50
Corn (Zea mays); [12]
  Corn plant response rating: 5
Corn (Zea mays); [13]
  Plant response rating, Corn: 10
Corn (Zea mays); [14]
  Plant response rating, Corn: 10
Corn (Zea mays); [15]
  Plant response rating, Corn: 0
Corn (Zea mays); [16]
  Plant response rating, Corn: 5
Corn (Zea mays); [17]
  Plant response rating, Corn: 0
Corn (Zea mays); [18]
  Corn plant response rating: 10
Corn (Zea mays); [19]
  Corn plant response rating: 5
[2]; [12]
  Wheat plant response rating: 0
[2]; [13]
  Plant response rating, Wheat: 0
[2]; [14]
  Plant response rating, Wheat: 0
[2]; [15]
  Plant response rating, Wheat: 0
[2]; [16]
  Plant response rating, Wheat: 0
[2]; [17]
  Plant response rating, Wheat: 10
[2]; [18]
  Wheat plant response rating: 5
[2]; [19]
  Wheat plant response rating: 0
[3]; [12]
  Ryegrass, Italian plant response rating: 80
[3]; [13]
  Plant response rating, Ryegrass, Italian: 85
[3]; [14]
  Plant response rating, Ryegrass, Italian: 85
[3]; [15]
  Plant response rating, Ryegrass, Italian: 90
[3]; [16]
  Plant response rating, Ryegrass, Italian: 90
[3]; [17]
  Plant response rating, Ryegrass, Italian: 90
[3]; [18]
  Ryegrass, Italian plant response rating: 90
[3]; [19]
  Ryegrass, Italian plant response rating: 80
[4]; [12]
  Crabgrass, Large plant response rating: 5
[4]; [13]
  Plant response rating, Crabgrass, Large: 5
[4]; [14]
  Plant response rating, Crabgrass, Large: 20
[4]; [15]
  Plant response rating, Crabgrass, Large: 75
[4]; [16]
  Plant response rating, Crabgrass, Large: 10
[4]; [17]
  Plant response rating, Crabgrass, Large: 25
[4]; [18]
  Crabgrass, Large plant response rating: 50
[4]; [19]
  Crabgrass, Large plant response rating: 10
[5]; [12]
  Johnsongrass plant response rating: 5
[5]; [13]
  Plant response rating, Johnsongrass: 5
[5]; [14]
  Plant response rating, Johnsongrass: 10
[5]; [15]
  Plant response rating, Johnsongrass: 0
[5]; [16]
  Plant response rating, Johnsongrass: 20
[5]; [17]
  Plant response rating, Johnsongrass: 20
[5]; [18]
  Johnsongrass plant response rating: 10
[5]; [19]
  Johnsongrass plant response rating: 5
[6]; [12]
  Blackgrass plant response rating: 5
[6]; [13]
  Plant response rating, Blackgrass: 20
[6]; [14]
  Plant response rating, Blackgrass: 35
[6]; [15]
  Plant response rating, Blackgrass: 20
[6]; [16]
  Plant response rating, Blackgrass: 30
[6]; [17]
  Plant response rating, Blackgrass: 30
[6]; [18]
  Blackgrass plant response rating: 30
[6]; [19]
  Blackgrass plant response rating: 5
[7]; [12]
  Foxtail, Giant plant response rating: 5
[7]; [13]
  Plant response rating, Foxtail, Giant: 5
[7]; [14]
  Plant response rating, Foxtail, Giant: 10
[7]; [15]
  Plant response rating, Foxtail, Giant: 5
[7]; [16]
  Plant response rating, Foxtail, Giant: 45
[7]; [17]
  Plant response rating, Foxtail, Giant: 70
[7]; [18]
  Foxtail, Giant plant response rating: 75
[7]; [19]
  Foxtail, Giant plant response rating: 5
[8]; [12]
  Nutsedge, Yellow plant response rating: 25
[8]; [13]
  Plant response rating, Nutsedge, Yellow: 50
[8]; [14]
  Plant response rating, Nutsedge, Yellow: 70
[8]; [15]
  Plant response rating, Nutsedge, Yellow: 15
[8]; [16]
  Plant response rating, Nutsedge, Yellow: 40
[8]; [17]
  Plant response rating, Nutsedge, Yellow: 65
[8]; [18]
  Nutsedge, Yellow plant response rating: 75
[8]; [19]
  Nutsedge, Yellow plant response rating: 20
Soybean (Glycine max); [12]
  Soybean plant response rating: 20
Soybean (Glycine max); [13]
  Plant response rating, Soybean: 35
Soybean (Glycine max); [14]
  Plant response rating, Soybean: 10
Soybean (Glycine max); [15]
  Plant response rating, Soybean: 0
Soybean (Glycine max); [16]
  Plant response rating, Soybean: 20
Soybean (Glycine max); [17]
  Plant response rating, Soybean: 45
Soybean (Glycine max); [18]
  Soybean plant response rating: 55
Soybean (Glycine max); [19]
  Soybean plant response rating: 35
[9]; [12]
  Galium plant response rating: 90
[9]; [13]
  Plant response rating, Galium: 90
[9]; [14]
  Plant response rating, Galium: 90
[9]; [15]
  Plant response rating, Galium: 90
[9]; [16]
  Plant response rating, Galium: 90
[9]; [17]
  Plant response rating, Galium: 90
[9]; [18]
  Galium plant response rating: 98
[9]; [19]
  Galium plant response rating: 90
[10]; [12]
  Barnyardgrass plant response rating: 25
[10]; [13]
  Plant response rating, Barnyardgrass: 15
[10]; [14]
  Plant response rating, Barnyardgrass: 20
[10]; [15]
  Plant response rating, Barnyardgrass: 5
[10]; [16]
  Plant response rating, Barnyardgrass: 25
[10]; [17]
  Plant response rating, Barnyardgrass: 50
[10]; [18]
  Barnyardgrass plant response rating: 85
[10]; [19]
  Barnyardgrass plant response rating: 25
[11]; 31 g ai/ha, visual, scale 0 no effect to 100 complete control
  Plant response rating, Waterhemp_RES2: 60
[11]; 62 g ai/ha, scale 0 to 100 (0 no effect, 100 complete control)
  Plant response rating, Waterhemp_RES2: 60
[11]; 125 g ai/ha, scale 0 to 100 (0 no effect, 100 complete control)
  Plant response rating, Waterhemp_RES2: 60
[11]; 250 g ai/ha, scale 0 to 100 (0 no effect, 100 complete control)
  Plant response rating, Waterhemp_RES2: 75
